Experimental data reported in ChEMBL document CHEMBL1156581, “Polychlorinated compounds with PPAR-gamma agonistic effect from the medicinal fungus Phellinus ribis” (Bioorg Med Chem Lett, 2008).
Calls of active or inactive are those of the source. No cut-off for these calls is given here.

How the values were obtained:
Escherichia coli = assay: Antimicrobial activity against Escherichia coli; type: functional, organism-based
[1] = molecular target: T1, Peroxisome proliferator-activated receptor gamma (Homo sapiens) (UniProt P37231); assay: Agonist activity at PPARgamma expressed in mouse NIH3T3 cells assessed as maximum activation at 10 uM after 16 hrs by reporter gene assay; type: functional, cell-based
T1 sequence (whole entry): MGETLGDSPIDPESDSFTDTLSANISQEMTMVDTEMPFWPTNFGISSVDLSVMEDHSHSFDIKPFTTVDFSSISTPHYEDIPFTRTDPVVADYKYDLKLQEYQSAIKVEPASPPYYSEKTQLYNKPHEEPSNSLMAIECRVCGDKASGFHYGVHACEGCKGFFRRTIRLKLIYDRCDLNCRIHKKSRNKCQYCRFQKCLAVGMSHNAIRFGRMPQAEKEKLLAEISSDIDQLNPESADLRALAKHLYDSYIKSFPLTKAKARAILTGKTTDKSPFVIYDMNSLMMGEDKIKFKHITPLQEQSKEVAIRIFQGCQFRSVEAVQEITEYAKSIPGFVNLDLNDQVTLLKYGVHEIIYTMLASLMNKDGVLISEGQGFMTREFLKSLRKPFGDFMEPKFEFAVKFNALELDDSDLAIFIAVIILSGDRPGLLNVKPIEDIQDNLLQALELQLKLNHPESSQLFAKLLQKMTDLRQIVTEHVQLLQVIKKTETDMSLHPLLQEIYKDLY

Staphylococcus aureus = assay: Antimicrobial activity against Staphylococcus aureus; type: functional, organism-based
Bacillus subtilis = assay: Antimicrobial activity against Bacillus subtilis; type: functional, organism-based
[2] = molecular target: T1, Peroxisome proliferator-activated receptor gamma (Homo sapiens); assay: Agonist activity at PPARgamma expressed in mouse NIH3T3 cells assessed as maximum activation at 100 uM after 16 hrs by reporter gene assay; type: functional, cell-based

| Compound | Activity (Escherichia coli) | fold change (FC) [1] | Activity (Staphylococcus aureus) | Activity (Bacillus subtilis) | fold change (FC) [2] |
| --- | --- | --- | --- | --- | --- |
| COc1c(Cl)c(Cl)c(Oc2c(O)c(Cl)c(OC)c(Cl)c2Oc2c(Cl)c(Cl)c(OC)c(Cl)c2Cl)c(Cl)c1Cl | inactive | 2 | inactive | inactive | – |
| COc1c(Cl)c(Cl)c(O)c(Cl)c1Cl | – | – | – | – | 8.4 |
| COc1c(Cl)c(Cl)c(Oc2c(Cl)c(OC)c(Cl)c(Cl)c2Oc2c(O)c(Cl)c(Cl)c(OC)c2Cl)c(Cl)c1Cl | inactive | 8.5 | inactive | inactive | – |
| COc1c(Cl)c(Cl)c(Oc2c(O)c(Oc3c(Cl)c(Cl)c(OC)c(Cl)c3Cl)c(Cl)c(OC)c2Cl)c(Cl)c1Cl | inactive | 2 | inactive | inactive | – |
